Experimental findings from patent US20260007634A1, “PHARMACEUTICAL COMPOSITIONS FOR THE TREATMENT OF ALLERGIC DISEASES” (KINKI UNIVERSITY, priority 2022, published 2026) are described below.

Structures are written as SMILES.

Common to all, as to assay type: in vivo, mouse
Assay [1] concerns IgE antibody. In words: Serum IgE antibody ELISA, cedar pollinosis mice. The following applies: serum day 28, oral 10 mg/kg (dexamethasone 2 mg/kg), control 71, vehicle 207. As to the method: (§1) A 0.2 mL dose of 100 μg cedar pollen and 1 mg Alum mixture was administered to 6-week-old female Balb/c mice (Japan SLC Inc.) (day 0 of the example). Alum was used as an adjuvant. Seven days later and 14 days later, the Balb/c mice were immunized again with 0.2 mL injections of the above mixture. Starting on day 20, mice were orally treated with 10 mg/kg of norathyriol, 10 mg/kg of mangiferin 8a, 10 mg/kg of tofacitinib (JAK inhibitor), 2 mg/kg of dexamethasone (steroid) and 10 mg/kg of olopatadine (antihistamine) daily for 8 consecutive days. Starting on day 21, 500 μg cedar pollen was administered intranasally, and nose-scratching behavior was measured on day 27. Note that tofacitinib, dexamethasone, and olopatadine are currently in clinical use in cedar pollinosis and were used as control drugs in this example.
Serum was collected from day 28 mice in Examples 28 and 29, and IgE antibody production was measured by enzyme-linked immunosorbent assay (ELISA). This assay was performed using a mouse IgE antibody ELISA kit (R&D).
On the technique in general: An ELISA detects its analyte on a solid surface through an enzyme-linked reagent.

Assay [2] has as its system IgE antibody. In words: Serum IgE antibody ELISA, allergic rhinitis mice. The conditions noted are these: OVA allergic rhinitis; serum day 28; oral 10 mg/kg (dexamethasone 2 mg/kg); control 58, vehicle 111. Here is the method:
(§2) A 0.2 mL dose of 50 μg ovalbumin (OVA) and 2 mg Alum mixture was administered to 6-week-old female Balb/c mice (Japan SLC Inc.) (day 0 of the example). Alum was used as an adjuvant. Seven days later and 14 days later, the Balb/c mice were immunized again with 0.2 mL injections of the above mixture. Starting on day 20, mice were orally treated with 10 mg/kg of norathyriol, 10 mg/kg of mangiferin 8a, 10 mg/kg of tofacitinib (JAK inhibitor), 2 mg/kg of dexamethasone (steroid) and 10 mg/kg of olopatadine (antihistamine) daily for 8 consecutive days. Starting on day 21, 400 μg OVA was administered intranasally, and nose-scratching behavior was measured on day 27. Note that tofacitinib, dexamethasone, and olopatadine are currently in clinical use in allergic rhinitis and were used as control drugs in this example.
Serum was collected from day 28 mice in Examples 6 and 7, and IgE antibody production was measured by enzyme-linked immunosorbent assay (ELISA). This assay was performed using a mouse IgE antibody ELISA kit (R&D).

Assay [3] relates to Balb/c mice with cedar pollinosis. Description: Nose scratching behavior, cedar pollinosis model mice. The following applies: oral daily 8 days from day 20, 10 mg/kg (dexamethasone 2 mg/kg), measured day 27, vs vehicle group. As to the method: as §1
(§3) The group that was just immunized with cedar pollen is called the subject group, the one that received norathyriol is called the norathyriol group, the one that received mangiferin 8a is called the mangiferin 8a group, the one that received tofacitinib is called the tofacitinib group, the one that received dexamethasone is called the dexamethasone group, and the one that received olopatadine is called the olopatadine group. Each group consisted of five animals.

Assay [4] concerns IL-4. In words: Serum IL-4 ELISA, allergic rhinitis mice. The following applies: OVA allergic rhinitis; serum day 28; oral 10 mg/kg (dexamethasone 2 mg/kg); control 227, vehicle 872. Here is the method: as §2
Serum was collected from day 28 mice in Examples 6 and 7, and IL-4 production was measured by enzyme-linked immunosorbent assay (ELISA). This assay was performed using a mouse IL-4 ELISA kit (R&D).

Another assay has as its system BAFF. Description: Serum BAFF ELISA, bronchial asthma mice. The conditions noted are these: OVA bronchial asthma; serum day 28; oral 10 mg/kg (dexamethasone 2 mg/kg); control 97, vehicle 1319. As to the method: as §2, with “cough” for “nose-scratching behavior”, “Note that tofacitinib, dexamethasone, and olopatadine are currently in clinical use in allergic rhinitis and were used as control drugs in this example.” left out
Serum was collected from day 28 mice in Examples 14, and BAFF production was measured by enzyme-linked immunosorbent assay (ELISA). This assay was performed using a mouse BAFF ELISA kit (R&D).

In assay [5] the test system is Balb/c mice with cedar pollinosis. Description: Sneezing, cedar pollinosis model mice. The conditions noted are these: oral daily 8 days from day 20, 10 mg/kg (dexamethasone 2 mg/kg), measured day 27, vs vehicle group. Here is the method:
as §1, with “sneezing” for “nose-scratching behavior”
as §3

The subject of assay [6] is IL-4. In words: Serum IL-4 ELISA, cedar pollinosis mice. The conditions noted are these: serum day 28, oral 10 mg/kg (dexamethasone 2 mg/kg), control 55, vehicle 374. As to the method: as §1, with “Note that tofacitinib, dexamethasone, and olopatadine are currently in clinical use in cedar pollinosis and were used as control drugs in this example.” left out
Serum was collected from day 28 mice in Examples 28 and 29, and IL-4 production was measured by enzyme-linked immunosorbent assay (ELISA). This assay was performed using a mouse IL-4 ELISA kit (R&D).

As to `O=c1c2cc(O)c(O)cc2oc2cc(O)cc(O)c12` [norathyriol, 1,3,6,7-tetrahydroxyxanthone], the “amount of IgE antibody” value with IgE antibody [1] is recorded as 156 ng/mL; with IgE antibody [2] it was 77 ng/mL. In addition, in assay [3], the “number of nose scratches” value is “significantly decreased the number of nose scratches”. Besides, the “amount of IL-4” value is on record as 495 pg/mL in the assay with IL-4 [4] and 111 pg/mL in the assay on IL-4 [6]. For the same compound, the “amount of BAFF” value in the assay with BAFF came out at 649 pg/mL. For the same compound, in assay [5], the number of sneezing result was “significantly decreased the number of sneezing”.
In the case of `C[C@@H]1C[C@H]2[C@@H]3CCC4=CC(=O)C=C[C@]4(C)[C@@]3(F)[C@@H](O)C[C@]2(C)[C@@]1(O)C(=O)CO` [dexamethasone], the results for the “amount of IgE antibody” value in the assay with IgE antibody [1] and with IgE antibody [2] were 154 ng/mL and 40 ng/mL, respectively. In addition, the “amount of IL-4” value with IL-4 [4] is 336 pg/mL; with IL-4 [6], 78 pg/mL. In addition, in the assay on BAFF, the “amount of BAFF” value was 321 pg/mL.
With `CN(C)CC/C=C1/c2ccccc2COc2ccc(CC(=O)O)cc21` [olopatadine], the “amount of IgE antibody” value in the assay on IgE antibody [1] is 218 ng/mL; in the assay with IgE antibody [2] it was 118 ng/mL. Further, the “number of nose scratches” value in assay [3] is “significantly decreased the number of nose scratches”. Moreover, the “amount of IL-4” value was 717 pg/mL in the assay on IL-4 [4] and 263 pg/mL with IL-4 [6]. Also, the “amount of BAFF” value in the assay on BAFF amounted to 1304 pg/mL. Further, the number of sneezing entry in assay [5] is “significantly decreased the number of sneezing”.
For the compound `C[C@@H]1CCN(C(=O)CC#N)C[C@@H]1N(C)c1ncnc2[nH]ccc12` [tofacitinib], the “amount of IgE antibody” value was determined as 185 ng/mL in the assay with IgE antibody [1] and 94 ng/mL in the assay on IgE antibody [2]. For the same compound, the “number of nose scratches” value in assay [3] is on record as “significantly decreased the number of nose scratches”. Moreover, the “amount of IL-4” value in the assay with IL-4 [4] is 808 pg/mL; with IL-4 [6], 213 pg/mL. In addition, the “amount of BAFF” value in the assay with BAFF came out at 902 pg/mL. The number of sneezing entry in assay [5] is recorded as “significantly decreased the number of sneezing”.
